Results reported in ChEMBL document CHEMBL5614390, “Novel EGFR inhibitors against resistant L858R/T790M/C797S mutant for intervention of non-small cell lung cancer” (Eur J Med Chem, 2024).
Calls of active or inactive are those of the source. The rule behind the calls is not given here.

How the values were obtained:
PC-9 [1] = assay: Induction of cell cycle arrest in human PC-9 cells expressing EGFR Del19/T790M/C797S mutant assessed as accumulation of cells at G2/M phase at 1 uM incubated for 24 hrs by PI staining based flow cytometric analysis; assay type: functional
PC-9 [2] = assay: Induction of cell cycle arrest in human PC-9 cells expressing EGFR Del19/T790M/C797S mutant assessed as S phase cells at 0.1 to 1 uM incubated for 24 hrs by PI staining based flow cytometric analysis (reference value: 32.4 +/- 1.1 %); assay type: functional; conditions: dose 0.1-1 µM
PC-9 [3] = assay: Induction of apoptosis in human PC-9 cells expressing EGFR L858R/T790M/C797S mutant assessed as late apoptotic cells at 0.1 uM incubated for 48 hrs by Annexin V-FITC/PI staining based flow cytometric analysis (reference value: 0.360 %); assay type: functional
PC-9 [4] = assay: Induction of apoptosis in human PC-9 cells expressing EGFR L858R/T790M/C797S mutant assessed as viable cells at 0.5 uM incubated for 48 hrs by Annexin V-FITC/PI staining based flow cytometric analysis (reference value: 98.9 %); assay type: functional; conditions: read-out: Activity
PC-9 [5] = assay: Induction of apoptosis in human PC-9 cells expressing EGFR L858R/T790M/C797S mutant assessed as early apoptotic cells at 0.5 uM incubated for 48 hrs by Annexin V-FITC/PI staining based flow cytometric analysis (reference value: 0.210 %); assay type: functional
PC-9 [6] = assay: Induction of apoptosis in human PC-9 cells expressing EGFR L858R/T790M/C797S mutant assessed as late apoptotic cells at 0.5 uM incubated for 48 hrs by Annexin V-FITC/PI staining based flow cytometric analysis (reference value: 0.360 %); assay type: functional
PC-9 [7] = assay: Induction of apoptosis in human PC-9 cells expressing EGFR L858R/T790M/C797S mutant assessed as viable cells at 1 uM incubated for 48 hrs by Annexin V-FITC/PI staining based flow cytometric analysis (reference value: 98.9 %); assay type: functional; conditions: Homo sapiens, PC-9, read-out: Activity
PC-9 [8] = assay: Induction of apoptosis in human PC-9 cells expressing EGFR L858R/T790M/C797S mutant assessed as early apoptotic cells at 1 uM incubated for 48 hrs by Annexin V-FITC/PI staining based flow cytometric analysis (reference value: 0.210 %); assay type: functional
PC-9 [9] = assay: Induction of apoptosis in human PC-9 cells expressing EGFR Del19/T790M/C797S mutant assessed as late apoptotic cells at 0.1 uM incubated for 48 hrs by Annexin V-FITC/PI staining based flow cytometric analysis (reference value: 0.040 %); assay type: functional
PC-9 [10] = assay: Induction of apoptosis in human PC-9 cells expressing EGFR Del19/T790M/C797S mutant assessed as viable cells at 0.5 uM incubated for 48 hrs by Annexin V-FITC/PI staining based flow cytometric analysis (reference value: 99.8 %); assay type: functional; conditions: read-out: Activity
PC-9 [11] = assay: Induction of apoptosis in human PC-9 cells expressing EGFR Del19/T790M/C797S mutant assessed as early apoptotic cells at 0.5 uM incubated for 48 hrs by Annexin V-FITC/PI staining based flow cytometric analysis (reference value: 0.050 %); assay type: functional
PC-9 [12] = assay: Induction of apoptosis in human PC-9 cells expressing EGFR Del19/T790M/C797S mutant assessed as necrotic cells at 0.5 uM incubated for 48 hrs by Annexin V-FITC/PI staining based flow cytometric analysis (reference value: 0.090 %); assay type: functional
PC-9 [13] = assay: Induction of apoptosis in human PC-9 cells expressing EGFR Del19/T790M/C797S mutant assessed as necrotic cells at 1 uM incubated for 48 hrs by Annexin V-FITC/PI staining based flow cytometric analysis (reference value: 0.090 %); assay type: functional
PC-9 [14] = assay: Antitumor activity against human PC-9 cells expressing EGFR L858R/T790M/C797S mutant xenografted in BALB/c nude mouse assessed as reduction in tumor volume at 10 to 40 mg/kg, po administered for 18 days; assay type: functional, organism-based; conditions: dose 10-40 mg/kg, time 18.0 day
PC-9 [15] = assay: Antitumor activity against human PC-9 cells expressing EGFR L858R/T790M/C797S mutant xenografted in BALB/c nude mouse assessed as reduction in tumor weight at 10 to 40 mg/kg, po administered for 18 days; assay type: functional, organism-based; conditions: dose 10-40 mg/kg, time 18.0 day
PC-9 [16] = assay: Antitumor activity against human PC-9 cells expressing EGFR L858R/T790M/C797S mutant xenografted in BALB/c nude mouse assessed as tumor growth inhibition at 40 mg/kg, po administered for 18 days relative to control; assay type: functional; conditions: Mus musculus, PC-9, 432 h, time 18 day, read-out: TGI
[17] = Metabolic stability in mouse liver microsomes assessed as half-life at 10 uM preincubated for 5 mins followed by NADPH addition and measured upto 60 mins by HPLC analysis; assay type: ADME, Microsome; conditions: time < 65 min
[18] = Metabolic stability in Sprague-Dawley rat liver microsomes assessed as half-life at 10 uM preincubated for 5 mins followed by NADPH addition and measured upto 60 mins by HPLC analysis; assay type: ADME, Microsome; conditions: time < 65 min
[19] = Metabolic stability in rabbit liver microsomes assessed as half-life at 10 uM preincubated for 5 mins followed by NADPH addition and measured upto 60 mins by HPLC analysis; assay type: ADME, Oryctolagus cuniculus, Microsome; conditions: time < 65 min
[20] = Metabolic stability in dog liver microsomes assessed as half-life at 10 uM preincubated for 5 mins followed by NADPH addition and measured upto 60 mins by HPLC analysis; assay type: ADME, Canis lupus familiaris, Microsome; conditions: time < 65 min
[21] = Metabolic stability in human liver microsomes assessed as half-life at 10 uM preincubated for 5 mins followed by NADPH addition and measured upto 60 mins by HPLC analysis; assay type: ADME, Microsome; conditions: time < 65 min
[22] = Metabolic stability in mouse liver microsomes assessed as intrinsic clearance at 10 uM preincubated for 5 mins followed by NADPH addition and measured upto 60 mins by HPLC analysis; assay type: ADME, Microsome; conditions: time < 65 min, read-out: CLH
[23] = Metabolic stability in Sprague-Dawley rat liver microsomes assessed as intrinsic clearance at 10 uM preincubated for 5 mins followed by NADPH addition and measured upto 60 mins by HPLC analysis; assay type: ADME, Microsome; conditions: time < 65 min, read-out: CLH
PC-9 [24] = assay: cells; conditions: Homo sapiens, PC-9, 72 h
Description: Cytotoxicity against human PC-9 cells expressing EGFR L858R/T790M/C797S mutant assessed as inhibition of cell proliferation incubated for 72 hrs by CCK8 assay

A-431 = assay: cells; conditions: Homo sapiens, A-431, 72 h
Description: Cytotoxicity against human A-431 cells assessed as inhibition of cell proliferation incubated for 72 hrs by CCK8 assay

- half-life at 10 µM [17]: 1.38 h
- half-life at 10 µM [18]: 1.48 h
- half-life at 10 µM [19]: 2.36 h
- half-life at 10 µM [20]: 4.28 h
- half-life at 10 µM [21]: 3.85 h
- microsomal CLint at 10 µM [22]: 56 µL/min/mg
- microsomal CLint at 10 µM [23]: 52 µL/min/mg
- IC50 (PC-9 [24]): 52 nM
- IC50 (A-431): 1070 nM
SMILES: C=CC(=O)Nc1cc(Nc2ncc(F)c(-c3ccc4cc(C(=O)NC)n(C(C)C)c4c3)n2)ccc1N1CCN(C)CC1
- Activity (PC-9 [1]): Active
- Activity (PC-9 [2]): 15.6%
- Activity (PC-9 [3]): 7.25%
- viability at 0.5 µM (PC-9 [4]): 61.2%
- Activity (PC-9 [5]): 30.3%
- Activity (PC-9 [6]): 6.77%
- viability at 1 µM (PC-9 [7]): 58.8%
- Activity (PC-9 [8]): 36.3%
- Activity (PC-9 [9]): 7.34%
- viability at 0.5 µM (PC-9 [10]): 82.8%
- Activity (PC-9 [11]): 11.8%
- Activity (PC-9 [12]): 1.2%
- Activity (PC-9 [13]): 1.01%
- Activity (PC-9 [14]): Active
- Activity (PC-9 [15]): Active
- inhibition in vivo at 40 mg/kg (PC-9 [16]): 70.6%
